Measurements taken from patent US20260159486A1, “BENZO[H]QUINAZOLINE-4-AMINE DERIVATIVES FOR THE TREATMENT OF CANCER” (Redona Therapeutics, Inc., priority 2021, published 2026).
pIC50: −log10 of the molar value.

Tests used:
MDA-MB-231 cells = assay: MDA-MB-231 proliferation assay; type: cell-based; details: Homo sapiens, MDA-MB-231, 72 h, YO-PRO-1 Iodide readout
Method in brief: (§1)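 Cells seeded at 750 per well, treated next day for 72 h at 37 °C with 0.5% final DMSO. Cell number read by YO-PRO-1 fluorescence after lysis, normalized to DMSO (100%) and time-zero cells (0%). GI50 from 4-parameter logistic fit, maximum constrained to 100%.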

recombinant human CLK3 = molecular target: T1, recombinant human CLK3 (Homo sapiens, UniProt P49761); assay: CLK3 kinase assay (LANCE Ultra); type: biochemical; details: CLK3 0.5 nM, ATP 300 μM, 3 hours at 30° C.
T1 construct: purchased Thermo Fisher Scientific PV3826
Method in brief: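 Recombinant human CLK3 (0.5 nM) with ULight-CREBtide (50 nM) and 300 μM ATP, 3 h at 30 °C in kinase buffer; EDTA stop, then Eu-anti-phospho-CREB antibody (2 nM, 1 h RT), TR-FRET read at 665/620 nm. Inhibition normalized to DMSO and no-ATP wells; IC50 from 4-parameter fit, ten 1:3 concentrations in duplicate.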

CAL-51 cells = assay: CAL-51 proliferation assay; type: cell-based; details: Homo sapiens, CAL-51, 72 h, YO-PRO-1 Iodide readout
Method in brief: as §1

T1 sequence (P49761 whole entry): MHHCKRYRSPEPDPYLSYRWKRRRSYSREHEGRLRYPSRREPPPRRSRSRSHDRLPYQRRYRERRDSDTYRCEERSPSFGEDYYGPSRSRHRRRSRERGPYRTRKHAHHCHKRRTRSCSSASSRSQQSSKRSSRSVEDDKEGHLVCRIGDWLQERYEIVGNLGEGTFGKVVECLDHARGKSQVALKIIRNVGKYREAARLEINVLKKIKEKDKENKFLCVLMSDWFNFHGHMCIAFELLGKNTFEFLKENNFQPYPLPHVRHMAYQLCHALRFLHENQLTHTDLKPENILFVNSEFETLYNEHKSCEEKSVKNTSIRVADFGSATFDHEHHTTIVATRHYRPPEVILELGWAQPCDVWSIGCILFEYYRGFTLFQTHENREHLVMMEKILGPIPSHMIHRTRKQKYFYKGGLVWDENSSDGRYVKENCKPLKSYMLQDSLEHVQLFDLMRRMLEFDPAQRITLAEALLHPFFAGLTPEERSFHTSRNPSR

Row | GI50 (MDA-MB-231 cells) [nM] | pIC50 (recombinant human CLK3) | SMILES | GI50 (CAL-51 cells) [nM]
1 | 100 to 2000 | 6.00 to 7.00 | CC1(C)Cc2c(ccc(O[C@H]3CC[C@H](N)CC3)c2NCC2(C#N)CC2)-c2ncnc(N)c21 [Example 76, 1-[[[4-amino-8-(trans-4-aminocyclohexoxy)-5,5-dimethyl-6H-benzo[h]quinazolin-7-yl]amino]methyl]cyclopropanecarbonitrile] | 100 to 2000
2 | > 2000 | > 7.52 | CC1(C)Cc2c(ccc(O[C@H]3CC[C@H](N)CC3)c2N2CCC(C(N)=O)C2)-c2ncnc(N)c21 (stereo partly drawn) [Example 77, 1-[4-amino-8-(trans-4-aminocyclohexoxy)-5,5-dimethyl-6H-benzo[h]quinazolin-7-yl]pyrrolidine-3-carboxamide] | 100 to 2000
3 | < 100 | > 7.52 | CN(CCC#N)c1c(OC2CCCNCC2)ccc2c1CC(C)(C)c1c(N)ncnc1-2 (stereo not drawn) [Example 78, 3-[[4-amino-8-(azepan-4-yloxy)-5,5-dimethyl-6H-benzo[h]quinazolin-7-yl]-methyl-amino]propanenitrile] | < 100
4 | > 2000 | 7.00 to 7.52 | Nc1ncnc2c1C1(CCCC1)Cc1c-2ccc(O[C@H]2CC[C@@H](N)CC2)c1NCC(=O)O [Example 79, 2-[[4-amino-8-(cis-4-aminocyclohexoxy)spiro[6H-benzo[h]quinazoline-5,1′-cyclopentane]-7-yl]amino]acetic acid] | > 2000
5 | 100 to 2000 | > 7.52 | CN(CCN)c1c(O[C@H]2CC[C@H](N)CC2)ccc2c1CC(C)(C)c1c(N)ncnc1-2 [Example 80, 8-(trans-4-aminocyclohexoxy)-N7-(2-aminoethyl)-N7,5,5-trimethyl-6H-benzo[h]quinazoline-4,7-diamine] | 100 to 2000
6 | 100 to 2000 | > 7.52 | CC1(C)Cc2c(ccc(O[C@H]3CC[C@H](N)CC3)c2CCCC#N)-c2ncnc(N)c21 [Example 81, 4-[4-amino-8-(trans-4-aminocyclohexoxy)-5,5-dimethyl-6H-benzo[h]quinazolin-7-yl]butanenitrile] | < 100
7 | 100 to 2000 | > 7.52 | COc1ccc2c(c1NC[C@@H]1CNC(=O)O1)CC(C)(C)c1c(N)ncnc1-2 [Example 82, (5R)-5-[[(4-amino-8-methoxy-5,5-dimethyl-6H-benzo[h]quinazolin-7-yl)amino]methyl]oxazolidin-2-one] | < 100
8 | < 100 | > 7.52 | CN(CCO)c1c(O[C@H]2CC[C@@H](N)CC2)ccc2c1CC1(CCCC1)c1c(N)ncnc1-2 [Example 83, 2-[[4-amino-8-(cis-4-aminocyclohexoxy)spiro[6H-benzo[h]quinazoline-5,1′-cyclopentane]-7-yl]-methyl-amino]ethanol] | < 100
9 | 100 to 2000 | 7.00 to 7.52 | CC1(C)Cc2c(ccc(O[C@H]3CC[C@H](N)CC3)c2NC2CC2)-c2ncnc(N)c21 [Example 84, 8-(trans-4-aminocyclohexoxy)-N7-cyclopropyl-5,5-dimethyl-6H-benzo[h]quinazoline-4,7-diamine] | < 100
10 | > 2000 | 7.00 to 7.52 | CN(CCC(=O)O)c1c(O[C@H]2CC[C@H](N)CC2)ccc2c1CC(C)(C)c1c(N)ncnc1-2 [Example 85, 3-[[4-amino-8-(trans-4-aminocyclohexoxy)-5,5-dimethyl-6H-benzo[h]quinazolin-7-yl]-methyl-amino]propanoic acid] | > 2000
11 | > 2000 | > 7.52 | CN(c1c(O[C@H]2CC[C@H](N)CC2)ccc2c1CC(C)(C)c1c(N)ncnc1-2)S(=O)(=O)CCC(N)=O [Example 86, 3-[[4-amino-8-(trans-4-aminocyclohexoxy)-5,5-dimethyl-6H-benzo[h]quinazolin-7-yl]-methyl-sulfamoyl]propanamide] | 100 to 2000
12 | 100 to 2000 | 7.00 to 7.52 | COCCNc1c(O[C@H]2CC[C@@H](N)CC2)ccc2c1CC1(CCCC1)c1c(N)ncnc1-2 [Example 87, 8-(cis-4-aminocyclohexoxy)-N7-(2-methoxyethyl)spiro[6H-benzo[h]quinazoline-5,1′-cyclopentane]-4,7-diamine] | 100 to 2000
13 | > 2000 | 7.00 to 7.52 | CN(CC(C)(C)C(N)=O)c1c(O[C@H]2CC[C@H](N)CC2)ccc2c1CC(C)(C)c1c(N)ncnc1-2 [Example 88, 3-[[4-amino-8-(trans-4-aminocyclohexoxy)-5,5-dimethyl-6H-benzo[h]quinazolin-7-yl]-methyl-amino]-2,2-dimethyl-propanamide] | 100 to 2000
14 | 100 to 2000 | 6.00 to 7.00 | COc1ccc2c(c1NCC[C@@H]1CNC(=O)O1)CC(C)(C)c1c(N)ncnc1-2 [Example 89, (5R)-5-[2-[(4-amino-8-methoxy-5,5-dimethyl-6H-benzo[h]quinazolin-7-yl)amino]ethyl]oxazolidin-2-one] | 100 to 2000
15 | 100 to 2000 | > 7.52 | CC1(C)Cc2c(ccc(O[C@H]3CC[C@H](N)CC3)c2C(=O)NCC#N)-c2ncnc(N)c21 [Example 90, 4-amino-8-(trans-4-aminocyclohexoxy)-N-(cyanomethyl)-5,5-dimethyl-6H-benzo[h]quinazoline-7-carboxamide] | 100 to 2000
16 | < 100 | > 7.52 | CN(CC(C)(C)C#N)c1c(O[C@H]2CC[C@H](N)CC2)ccc2c1CC(C)(C)c1c(N)ncnc1-2 [Example 91, 3-[[4-amino-8-(trans-4-aminocyclohexoxy)-5,5-dimethyl-6H-benzo[h]quinazolin-7-yl]-methyl-amino]-2,2-dimethyl-propanenitrile] | < 100
17 | < 100 | > 7.52 | CC(CCO)c1c(O[C@H]2CC[C@H](N)CC2)ccc2c1CC(C)(C)c1c(N)ncnc1-2 (stereo partly drawn) [Example 92, 3-[4-amino-8-(trans-4-aminocyclohexoxy)-5,5-dimethyl-6H-benzo[h]quinazolin-7-yl]butan-1-ol] | < 100
18 | < 100 | > 7.52 | CN(CCC#N)c1c(OC2CCNCC2)ccc2c1CC(C)(C)c1c(N)ncnc1-2 [Example 93, 3-[[4-amino-5,5-dimethyl-8-(4-piperidyloxy)-6H-benzo[h]quinazolin-7-yl]-methyl-amino]propanenitrile] | < 100
19 | > 2000 | 6.00 to 7.00 | CN(CC#N)C(=O)c1c(O[C@H]2CC[C@H](N)CC2)ccc2c1CC(C)(C)c1c(N)ncnc1-2 [Example 94, 4-amino-8-(trans-4-aminocyclohexoxy)-N-(cyanomethyl)-N,5,5-trimethyl-6H-benzo[h]quinazoline-7-carboxamide] | 100 to 2000
20 | < 100 | > 7.52 | COc1ccc2c(c1N(C)CCC#N)CC(C)(C)c1c(N)ncnc1-2 [Example 95, 3-[(4-amino-8-methoxy-5,5-dimethyl-6H-benzo[h]quinazolin-7-yl)-methyl-amino]propanenitrile] | < 100
21 | < 100 | > 7.52 | CN(CCC#N)c1c(O[C@H]2CC[C@H](N(C)C)CC2)ccc2c1CC(C)(C)c1c(N)ncnc1-2 [Example 96] | < 100
22 | < 100 | > 7.52 | CC(CCC#N)c1c(O[C@H]2CC[C@H](N)CC2)ccc2c1CC(C)(C)c1c(N)ncnc1-2 (stereo partly drawn) [Example 97, 4-[4-amino-8-(trans-4-aminocyclohexoxy)-5,5-dimethyl-6H-benzo[h]quinazolin-7-yl]pentanenitrile] | < 100
23 | 100 to 2000 | > 7.52 | C/C(=C\CO)c1c(O[C@H]2CC[C@H](N)CC2)ccc2c1CC(C)(C)c1c(N)ncnc1-2 [Example 98, (E)-3-[4-amino-8-(trans-4-aminocyclohexoxy)-5,5-dimethyl-6H-benzo[h]quinazolin-7-yl]but-2-en-1-ol] | < 100
24 | < 100 | > 7.52 | CN[C@H]1CC[C@H](Oc2ccc3c(c2N(C)CCC#N)CC(C)(C)c2c(N)ncnc2-3)CC1 [Example 99, 3-[[4-amino-5,5-dimethyl-8-[trans-4-(methylamino)cyclohexoxy]-6H-benzo[h]quinazolin-7-yl]-methyl-amino]propanenitrile] | < 100
25 | 100 to 2000 | 6.00 to 7.00 | CCCCN(C)c1c(O[C@H]2CC[C@H](N)CC2)ccc2c1CC(C)(C)c1c(N)ncnc1-2 [Example 100, 8-(trans-4-aminocyclohexoxy)-N7-butyl-N7,5,5-trimethyl-6H-benzo[h]quinazoline-4,7-diamine] | 100 to 2000
26 | 100 to 2000 | 6.00 to 7.00 | CN(Cc1ccncc1)c1c(O[C@H]2CC[C@H](N)CC2)ccc2c1CC(C)(C)c1c(N)ncnc1-2 [Example 101, 8-(trans-4-aminocyclohexoxy)-N7,5,5-trimethyl-N7-(4-pyridylmethyl)-6H-benzo[h]quinazoline-4,7-diamine] | 100 to 2000
27 | 100 to 2000 | > 7.52 | CC(C)N(C)c1c(O[C@H]2CC[C@H](N)CC2)ccc2c1CC(C)(C)c1c(N)ncnc1-2 [Example 102, 8-(trans-4-aminocyclohexoxy)-N7-isopropyl-N7,5,5-trimethyl-6H-benzo[h]quinazoline-4,7-diamine] | < 100
28 | 100 to 2000 | 7.00 to 7.52 | CN(Cc1c[nH]cn1)c1c(O[C@H]2CC[C@H](N)CC2)ccc2c1CC(C)(C)c1c(N)ncnc1-2 [Example 103, 8-(trans-4-aminocyclohexoxy)-N7-(1H-imidazol-4-ylmethyl)-N7,5,5-trimethyl-6H-benzo[h]quinazoline-4,7-diamine] | 100 to 2000
